Like-named read-outs stand apart in the source and are kept apart here.
Columns and labels:
[1] = base screening: anti-histamine in vitro
From the text: (f) anti-histamine in vitro as determined in accordance with R. Magnus, Arch f.d., ges. physiol., Vol. 102, pages 123-151, 1904.

[2] = stereotype behaviour induced by apomorphine in rats; type: in vivo; details: p.o.
From the text: (§1) The compounds of Examples 1, 4, 11 and 12 were subjected to behavioural tests in accordance with "predictability and specificity of behaviour screening tests for neuroleptics", P. Worms and K. G. Lloyd, […], Vol. 5, pages 445-450, 1979, comprising: […]

[3] = hypomotility induced by amphetamine in rats; type: in vivo; details: p.o.
From the text: as §1

[4] = catalepsy induced by haloperidol in rats; type: in vivo; details: p.o.
From the text: as §1

[5] = base screening: bronchodilatory in vitro
From the text: (e) bronchodilatory in vitro as determined in accordance with F. P. Luduena et al., Arch. int. Pharmacodyn, Vol. 111, pages 392-400, 1957

[6] = climbing behaviour induced by apomorphine in mice; type: in vivo; details: p.o.
From the text: as §1

[7] = rectal temperature in mice; type: in vivo; details: p.o.
From the text: as §1

[8] = analgesia induced by pentobarbital in mice; type: in vivo; details: p.o.
From the text: as §1

[9] = behavioural study in rats: anxiety induced by a new environment (rearings and movements); type: in vivo, male Sprague-Dawley rats; details: for ED50: Rattus norvegicus, 0.5 h
From the text: The xanthines obtained in accordance with the preceding Examples were the subject of a behavioural study in rats as a function of the anxiety induced by a new environment. In rats, anxiety is manifested by rearing the animal on its two hind paws, whilst locomotive activity is expressed by their movements.
A state of anxiety is induced by confronting "naive" male Sprague-Dawley (Iffa-Credo, France) rats weighing from 260 to 300 g with a new environment in the form of cages of Macrolon (30×25 cm) which are situated in a sound-proofed air-conditioned room (22° C./50% relative humidity).
The number of rearings and movements is automatically determined by means of infrared photoelectric cells which only emit electrical pulses for the active movements of the animal and not for its static movements, such as those of its head and tail, for reasons of reproducibility. These photoelectric cells scan the cages at two different levels so as to distinguish the standing-up movements from the other movements. The number of rearings and movements is counted by the two rows of photoelectric cells, memorised and read out using a printer in accordance with a pre-established program.
The tested compound in solution in the form of its sodium salt is orally administered by oesophagus probe (the reference administration being formed by 6 ml/kg of distilled water) 30 minutes before the animals are placed in the cages. The number of rearings and movements is determined during the 15 minutes after they have been put into the cages in relation to the effect generated by the reference administration.
The ED 50 dose (expressed in mg/kg), i.e. the quantity of substance required to bring about a 50% variation in the motive activity in relation to the reference administration, is determined from the development of the effects of the tested substances on the number of movements and rearings as a function of the progressive doses administered expressed as a percentage of the movements and rearings counted for the reference administration.
The gradients of the regression curves corresponding to the movements and to the rearings are compared by recording the value of the gradient of the movement curve on the abscissa (d) and the value of the gradient of the rearing curve on the ordinant (r) of a system of rectungular axes.
The ratio of the gradient of the movements to that of the rearings is also determined, enabling the specificity of effect of a given substance on the anxiety state to be assessed.
The effect of a substance is determined by its position relative to the curve d=r of gradient=1. The substances situated on this curve have a similar effect on the rearings and movements, being sedatives with a non-specific effect (S.N.). For these compounds, the ED 50 value quoted corresponds to the mean taken from the two regression curves.
These compounds are sedatives of anxiolytic character (S.A.). In this case, the ED 50 value is calculated from the regression curve of the rearings.

[10] = base screening: anti-allergic in male and female rats; type: in vivo; details: for minimal effective dose: Rattus norvegicus, read-out: minimal effective dose producing a significant response, anti-allergic (d)
From the text: (d) anti-allergic in male and female rats, as determined in accordance with J. Goose and A. M. J. N. Blair, Immunol., Vol. 16, pages 749-760, 1969

[11] = base screening: diuretic in male rats; type: in vivo; details: Rattus norvegicus, read-out: minimal effective dose producing a significant response, diuretic (c)
From the text: (c) diuretic in male rats, as determined in accordance with W. L. Lipschitz, Z Hadidian and A. Kerpcsar, JPET, Vol. 79, pages 97-110, 1943

in vivo [12] = details: rat, po, solution in DMSO
From the text: (b) Determination of the acute toxicity LD 50 in male and female rats in solution is DMSO (reference DMSO alone) in accordance with C.

in vivo [13] = details: mouse, po, solution in DMSO
[14] = female, read-out: LD 50, rats female
[15] = male, read-out: LD 50, rats male
[16] = oral, sodium salt in solution, 30 min before test, 15 min count, S.N.: mean of two regression curves, S.A.: from rearings curve, read-out: ED 50
[17] = female, read-out: LD 50, mice female
[18] = male, read-out: LD 50, mice male

In the case of C=CCn1c(=O)c2[nH]c(C)nc2n(CCCC)c1=O [Example 1, 1-allyl-3-butyl-8-methyl xanthine], the “minimal effective concentration producing a significant response, anti-histamine (f)” value [1] was 100 µg/mL, the “stereotype behaviour induced by apomorphine” value (“stereotype behaviour induced” for short) [2] was “no antagonism up to 8 mg/kg p.o” and the “hypomotility induced by amphetamine” value [3] was “antagonism at 0.5 mg/kg p.o”. For the same molecule, the “catalepsy induced by haloperidol” value [4] was “potentialisation at 1 mg/kg p.o”, the “minimal effective concentration producing a significant response, bronchodilatory (e)” value [5] was 100 µg/mL and the “climbing behaviour induced by apomorphine” value (shortened to “climbing behaviour induced”) [6] was “inhibition at 1 mg/kg p.o”. For the same molecule, the rectal temperature [7] was “hypothermal effect at 2 mg/kg p.o”, the “analgesia induced by pentobarbital” value [8] was “potentialisation at 0.5 mg/kg p.o” and the ED50 ([9]; po) was 0.14 mg/kg. For the same molecule, the minimal effective dose [10] was 2.5 mg/kg and the minimal effective dose [11] was 5 mg/kg.

In the case of C=CCn1c(=O)c2[nH]cnc2n(CCCC)c1=O [Example 2, 1-allyl-3-butyl xanthine], the LD50 (in vivo [12]; [14]) was greater than 200 mg/kg, the LD50 (in vivo [12]; [15]) was greater than 200 mg/kg and the “minimal effective concentration producing a significant response, anti-histamine (f)” value [1] was 100 µg/mL. For the same molecule, the “minimal effective concentration producing a significant response, bronchodilatory (e)” value [5] was 25 µg/mL, the ED50 [9, 16] was 1.6 mg/kg and the minimal effective dose [10] was 10 mg/kg. It also gave a minimal effective dose [11] of 10 mg/kg.

With C=CCn1c(=O)c2[nH]cnc2n(CC(C)C)c1=O [Example 3, 1-allyl-3-isobutyl xanthine] the “minimal effective concentration producing a significant response, anti-histamine (f)” value [1] was 200 µg/mL, the “minimal effective concentration producing a significant response, bronchodilatory (e)” value [5] was “no effect” and the ED50 [9, 16] was 0.98 mg/kg. For the same molecule, the “minimal effective dose producing a significant response, anti-allergic (d)” value [10] was “no effect” and the minimal effective dose [11] was 5 mg/kg.

With C=CCn1c(=O)c2[nH]c(C)nc2n(CC(C)C)c1=O [Example 4, 1-allyl-3-isobutyl-8-methyl xanthine] the LD50 (in vivo [12]; [14]) was 17 mg/kg, the LD50 (in vivo [12]; [15]) was 23 mg/kg and the “minimal effective concentration producing a significant response, anti-histamine (f)” value [1] was “no effect”. For the same molecule, the “stereotype behaviour induced” value [2] was “no antagonism up to 8 mg/kg p.o”, the “hypomotility induced by amphetamine” value [3] was “antagonism at 0.5 mg/kg p.o” and the “catalepsy induced by haloperidol” value [4] was “potentialisation at 1 mg/kg p.o”. The “minimal effective concentration producing a significant response, bronchodilatory (e)” value [5] was “no effect”, the “climbing behaviour induced” value [6] was “inhibition at 1 mg/kg p.o” and the rectal temperature [7] was “hypothermal effect at 2 mg/kg p.o”. The LD50 (in vivo [13]; [17]) was 49 mg/kg, the LD50 (in vivo [13]; [18]) was 79 mg/kg and the “analgesia induced by pentobarbital” value [8] was “potentialisation at 0.5 mg/kg p.o”. The ED50 [9, 16] was 0.25 mg/kg, the Effect ([9]; sedative/anxiolytic class) was “S.N” and the minimal effective dose [10] was 50 mg/kg. For the same molecule, the minimal effective dose [11] was 20 mg/kg.

With C=CCn1c(=O)c2[nH]c(CC)nc2n(CCCC)c1=O [Example 5, 1-allyl-3-butyl-8-ethyl xanthine] the “minimal effective concentration producing a significant response, anti-histamine (f)” value [1] was 100 µg/mL, the “minimal effective concentration producing a significant response, bronchodilatory (e)” value [5] was 5 µg/mL and the ED50 [9, 16] was 6.24 mg/kg. For the same molecule, the “minimal effective dose producing a significant response, anti-allergic (d)” value [10] was “no effect” and the minimal effective dose [11] was 2.5 mg/kg.

Molecule C=CCn1c(=O)c2[nH]c(C)nc2n(CCC)c1=O [Example 6, 1-allyl-3-propyl-8-methyl xanthine] has an ED50 [9, 16] of 0.27 mg/kg.

Work on C=CCn1c(=O)c2[nH]c(C)nc2n(CCC(C)C)c1=O [Example 7, 1-allyl-3-isopentyl-8-methyl xanthine] yielded an ED50 [9, 16] of 1.03 mg/kg.

Work on CCCCn1c(=O)n(CC)c(=O)c2[nH]c(C)nc21 [Example 8, 1-ethyl-3-butyl-8-methyl xanthine] yielded an ED50 [9, 16] of 1.02 mg/kg.

For CCCCn1c(=O)n(CC)c(=O)c2[nH]c(CC)nc21 [Example 9, 1,8-diethyl-3-butyl xanthine], the “minimal effective concentration producing a significant response, anti-histamine (f)” value [1] was 50 µg/mL, the “minimal effective concentration producing a significant response, bronchodilatory (e)” value [5] was 25 µg/mL and the ED50 [9, 16] was 2.38 mg/kg. For the same molecule, the “minimal effective dose producing a significant response, anti-allergic (d)” value [10] was “no effect” and the minimal effective dose [11] was 5 mg/kg.

Work on C=CCn1c(=O)n(CCCC)c(=O)c2[nH]c(C)nc21 [Example 10, 1-butyl-3-allyl-8-methyl xanthine] yielded an ED50 [9, 16] of 3.95 mg/kg.

In the case of CCCCn1c(=O)n(CCC)c(=O)c2[nH]c(C)nc21 [Example 11, 1-propyl-3-butyl-8-methyl xanthine], the LD50 (in vivo [12]; [14]) was 15 mg/kg, the LD50 (in vivo [12]; [15]) was 25 mg/kg and the “minimal effective concentration producing a significant response, anti-histamine (f)” value [1] was 50 µg/mL. The “stereotype behaviour induced” value [2] was “no antagonism up to 8 mg/kg p.o”, the “hypomotility induced by amphetamine” value [3] was “antagonism at 0.5 mg/kg p.o” and the “catalepsy induced by haloperidol” value [4] was “potentialisation at 1 mg/kg p.o”. For the same molecule, the “minimal effective concentration producing a significant response, bronchodilatory (e)” value [5] was 10 µg/mL, the “climbing behaviour induced” value [6] was “inhibition at 1 mg/kg p.o” and the rectal temperature [7] was “hypothermal effect at 2 mg/kg p.o”. The LD50 (in vivo [13]; [17]) was 151 mg/kg, the LD50 (in vivo [13]; [18]) was 91 mg/kg and the “analgesia induced by pentobarbital” value [8] was “potentialisation at 0.5 mg/kg p.o”. The ED50 [9, 16] was 0.35 mg/kg, the “minimal effective dose producing a significant response, anti-allergic (d)” value [10] was “no effect” and the minimal effective dose [11] was 0.25 mg/kg.

With CCCn1c(=O)c2[nH]c(C)nc2n(CC(C)C)c1=O [Example 12, 1-propyl-3-isobutyl-8-methyl xanthine] the LD50 (in vivo [12]; [14]) was 19 mg/kg, the LD50 (in vivo [12]; [15]) was 28 mg/kg and the “stereotype behaviour induced” value [2] was “no antagonism up to 8 mg/kg p.o”. The “hypomotility induced by amphetamine” value [3] was “antagonism at 0.5 mg/kg p.o”, the “catalepsy induced by haloperidol” value [4] was “potentialisation at 1 mg/kg p.o” and the “climbing behaviour induced” value [6] was “inhibition at 1 mg/kg p.o”. The rectal temperature [7] was “hypothermal effect at 2 mg/kg p.o”, the “analgesia induced by pentobarbital” value [8] was “potentialisation at 0.5 mg/kg p.o” and the ED50 [9, 16] was 0.25 mg/kg.

Molecule CCCCn1c(=O)c2[nH]c(C)nc2n(CCC)c1=O [Example 13, 1-butyl-3-propyl-8-methyl xanthine] has an ED50 [9, 16] of 1.05 mg/kg.

With CCCn1c(=O)c2[nH]c(C)nc2n(CCC)c1=O [Example 14, 1,3-dipropyl-8-methyl xanthine] the ED50 [9, 16] was 0.37 mg/kg.

Cc1nc2c([nH]1)c(=O)n(CC(C)C)c(=O)n2CC(C)C [Example 15, 1,3-diisobutyl-8-methyl xanthine] gave an ED50 [9, 16] of 0.42 mg/kg.

Molecule CCCCn1c(=O)n(C(C)C)c(=O)c2[nH]c(C)nc21 [Example 16, 1-isopropyl-3-butyl-8-methyl xanthine] has an ED50 [9, 16] of 1.76 mg/kg.

CNC1=Nc2ccc(Cl)cc2C(c2ccccc2)=[N+]([O-])C1 [chlordiazepoxide, reference compound] gave an ED50 ([9]; po) of 12 mg/kg.

In the case of CN(C)CCCN1c2ccccc2Sc2ccc(Cl)cc21 [chlorpromazine, reference compound], the ED50 ([9]; po) was 21 mg/kg.

O=C(CCCN1CCC(O)(c2ccc(Cl)cc2)CC1)c1ccc(F)cc1 [haloperidol, reference compound] gave an ED50 ([9]; po) of 1 mg/kg.

In the case of Cn1c(=O)c2[nH]cnc2n(C)c1=O [theophylline, reference compound], the action profile ([9]; conclusion from Table 3) was “psychostimulating” and the “effect on the anxiety state” value ([9]; conclusion from Table 3) was “does not have any effect on the anxiety state”.

— patent US4581451A, “Preparation of di- and tri-substituted xanthine compounds” (priority 1980, dated 1986)
